From patent publication US20250041195A1, “COLLAGEN TYPE III COMPOSITION PREPARED FROM FIBROBLAST EXTRACELLULAR MATRIX” (SINO UNITED (BEIJING) BIOMEDICAL TECHNOLOGY CO., LTD., priority 2022, published 2025) come the findings set out here.

Molecules are shown by their SMILES. Where a SMILES comes first, the peptide text is derived from it.

One series concerns human fibroblasts. Format: cell-based. To be noted: 48 h, 200 μg/mL. As for the experimental part: The active polypeptide of the present application with a sequence of EMHKMEPCPMYRRHLG was serially diluted in a 96-well cell culture plate to 5, 10, 25, 50, 100, 200 μg/mL, with 5 duplicated wells per concentration. The above operations were all performed under sterile conditions.
For the passage of the cell lines isolated in Example 1, the cell culture medium was firstly poured out, and the cells were washed twice with 2 mL of PBS. The liquid was discarded, and 1 mL of 0.25% (mass fraction) trypsin solution was added for digestion for 3 min until the cells were completely detached. […] The cell solution was adjusted to a concentration of 5.0×10^5 cells/mL and cultured at 37° C. under 5% carbon dioxide and saturated humidity conditions. After 24 h of passaging, the cells were used for pharmacological activity assay. The above operations were all performed under sterile conditions.
The cells were inoculated into a 96-well cell culture plate, with 100 μL per well, and incubated at 37° C. under 5% carbon dioxide and saturated humidity conditions. […] The absorbance was determined at 570 nm by a microplate reader, with 630 nm as a reference wavelength. The results were recorded and the cell viability was calculated according to the following formula: cell viability=(absorbance A570 of the experimental group/absorbance A570 of the blank control group)×100%.

In the next series the test system is mice. The series can be described thus: General chronic toxicology study in mice. It counts as in vivo. To be noted: duration ≥6 months, ICH S4 guidelines. An excerpt: The Fmoc polypeptide synthesis method is a conventional method used by a person skilled in the art to prepare a polypeptide. In the case that a person skilled in the art knows that the polypeptide to be prepared needs to comprise an amino acid sequence as shown in EMHKMEPCPMYRRHLG, in combination with the existing Fmoc polypeptide synthesis method, the polypeptide to be protected in the present application may be obtained.

`CSCC[C@H](NC(=O)[C@H](CCCCN)NC(=O)[C@H](Cc1c[nH]cn1)NC(=O)[C@H](CCSC)NC(=O)[C@@H](N)CCC(=O)O)C(=O)N[C@@H](CCC(=O)O)C(=O)N1CCC[C@H]1C(=O)N[C@@H](CS)C(=O)N1CCC[C@H]1C(=O)N[C@@H](CCSC)C(=O)N[C@@H](Cc1ccc(O)cc1)C(=O)N[C@@H](CCCNC(=N)N)C(=O)N[C@@H](CCCNC(=N)N)C(=O)N[C@@H](Cc1c[nH]cn1)C(=O)N[C@@H](CC(C)C)C(=O)NCC(=O)O` [active polypeptide, EMHKMEPCPMYRRHLG] (H-EMHKMEPCPMYRRHLG-OH): the cell viability in the series on human fibroblasts is 265.3%±4.52. Also, the “toxic side effects in general chronic toxicology study” value in the series with mice is on record as “no significant toxic side effects”.
